This note sets out measurements from patent US8546375B2, “(3-(4-(aminomethyl)phenoxy or phenylthio)azetidin-1-yl)(5-phenyl-1,3,4-oxadiazol-2-yl)methanone compounds” (AstraZeneca AB, priority 2010, dated 2013).

Where a name gives a salt, the structure may show the parent alone.

For one assay, the target named is T1, Melanin Concentrating Hormone Receptor 1 (MCHR1) (Homo sapiens, UniProt Q99705).
T1 construct: expressed in transfected cells
T1 sequence (Q99705 whole entry): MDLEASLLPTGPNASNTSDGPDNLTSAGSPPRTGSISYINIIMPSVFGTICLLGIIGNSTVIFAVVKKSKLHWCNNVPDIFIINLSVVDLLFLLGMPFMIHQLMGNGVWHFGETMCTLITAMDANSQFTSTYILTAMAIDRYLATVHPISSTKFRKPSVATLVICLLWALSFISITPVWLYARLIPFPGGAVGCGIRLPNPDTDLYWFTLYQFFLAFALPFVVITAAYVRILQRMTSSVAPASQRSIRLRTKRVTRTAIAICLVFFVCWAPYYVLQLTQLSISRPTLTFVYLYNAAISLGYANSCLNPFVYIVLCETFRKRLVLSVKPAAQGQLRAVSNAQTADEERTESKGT
Briefly: MCHR1 Receptor Activation Assay (GTPγ^35S). Type of assay: biochemical. The conditions noted are these: read-out: GTPγ^35S IC50.
The IC50 is the concentration that inhibits the measured activity by half. For `Cc1ccc(-c2nnc(C(=O)N3CC(Oc4ccc(CN(C)C)c(F)c4)C3)o2)cc1` [Example 28, (3-(4-((Dimethylamino)methyl)-3-fluorophenoxy)azetidin-1-yl)(5-p-tolyl-1,3,4-oxadiazol-2-yl)methanone], the IC50 was determined as 27 nM.

Regarding `COc1ccc(-c2nnc(C(=O)N3CC(Oc4ccc(CN5CCC(CO)CC5)cc4)C3)o2)cc1` [Example 89, (3-(4-((4-(hydroxymethyl)piperidin-1-yl)methyl)phenoxy)azetidin-1-yl)(5-(4-methoxyphenyl)-1,3,4-oxadiazol-2-yl)methanone], the IC50 amounted to 22 nM.

Turning to `COc1ccc(-c2nnc(C(=O)N3CC(Oc4ccc(CN(C)C)c(C)c4)C3)o2)cc1` [Example 20, (3-(4-((Dimethylamino)methyl)-3-methylphenoxy)azetidin-1-yl)(5-(4-methoxyphenyl)-1,3,4-oxadiazol-2-yl)methanone], the IC50 is 24 nM.

Regarding `CC1(O)CN(Cc2ccc(OC3CN(C(=O)c4nnc(-c5ccccc5)o4)C3)c(Cl)c2)C1` [Example 78, (3-(2-Chloro-4-((3-hydroxy-3-methylazetidin-1-yl)methyl)phenoxy)azetidin-1-yl)(5-phenyl-1,3,4-oxadiazol-2-yl)methanone], the IC50 was 42 nM.

For the molecule `CN(C)Cc1ccc(SC2CN(C(=O)c3nnc(-c4ccccc4)o3)C2)cc1` [Example 60, (3-(4-((Dimethylamino)methyl)phenylthio)azetidin-1-yl)(5-phenyl-1,3,4-oxadiazol-2-yl)methanone], the half-maximal inhibitory concentration (IC50) came out at 19 nM.

`COc1ccc(-c2nnc(C(=O)N3CC(Oc4ccc(CN5CCC(C)(CO)C5)cc4)C3)o2)cc1` (centres unmarked) [Example 84, (3-(4-((3-(hydroxymethyl)-3-methylpyrrolidin-1-yl)methyl)phenoxy)azetidin-1-yl)(5-(4-methoxyphenyl)-1,3,4-oxadiazol-2-yl)methanone]: the IC50 was found to be 17 nM.

`CCC1(O)CN(Cc2ccc(OC3CN(C(=O)c4nnc(-c5ccc(OC)cc5)o4)C3)c(C)c2)C1` [Example 72, (3-(4-((3-Ethyl-3-hydroxyazetidin-1-yl)methyl)-2-methylphenoxy)azetidin-1-yl)(5-(4-methoxyphenyl)-1,3,4-oxadiazol-2-yl)methanone]: the IC50 is 15 nM.

On to `COc1ccc(-c2nnc(C(=O)N3CC(Oc4ccc(CN5CCCC(O)CC5)cc4)C3)o2)cc1` (centres unmarked) [Example 86, (3-(4-((4-hydroxyazepan-1-yl)methyl)phenoxy)azetidin-1-yl)(5-(4-methoxyphenyl)-1,3,4-oxadiazol-2-yl)methanone], for which the IC50 is 15 nM.

For `COc1ccc(-c2nnc(C(=O)N3CC(Oc4ccc(CN5CCC5)cc4)C3)o2)cc1` [Example 41, (3-(4-(Azetidin-1-ylmethyl)phenoxy)azetidin-1-yl)(5-(4-methoxyphenyl)-1,3,4-oxadiazol-2-yl)methanone], the IC50 was 25 nM.

Consider `O=C(c1nnc(-c2ccc(C(F)(F)F)cc2)o1)N1CC(Oc2ccc(CN3CCCC3)cc2)C1` [Example 5, (3-(4-(Pyrrolidin-1-ylmethyl)phenoxy)azetidin-1-yl)(5-(4-(trifluoromethyl)phenyl)-1,3,4-oxadiazol-2-yl)methanone formate], for which the IC50 was found to be 15 nM.

As to `Cc1cc(CN2CCOCC2)ccc1OC1CN(C(=O)c2nnc(-c3ccc(Cl)cc3)o2)C1` [Example 15, (5-(4-Chlorophenyl)-1,3,4-oxadiazol-2-yl)(3-(2-methyl-4-(morpholinomethyl)phenoxy)azetidin-1-yl)methanone], the IC50 was 10 nM.

In the case of `COc1ccc(-c2nnc(C(=O)N3CC(Oc4ccc(CN5CCCC(C)(O)CC5)cc4)C3)o2)cc1` (centres unmarked) [Example 88, (3-(4-((4-hydroxy-4-methylazepan-1-yl)methyl)phenoxy)azetidin-1-yl)(5-(4-methoxyphenyl)-1,3,4-oxadiazol-2-yl)methanone], the IC50 amounted to 17 nM.

Regarding `O=C(c1nnc(-c2ccc(F)cc2)o1)N1CC(Oc2ccc(CN3CCCC3)cc2)C1` [Example 4, (5-(4-Fluorophenyl)-1,3,4-oxadiazol-2-yl)(3-(4-(pyrrolidin-1-ylmethyl)phenoxy)azetidin-1-yl)methanone], the IC50 is 20 nM.

`Cc1cc(CN2CCCC2)ccc1OC1CN(C(=O)c2nnc(-c3ccc(Cl)cc3)o2)C1` [Example 19, (5-(4-Chlorophenyl)-1,3,4-oxadiazol-2-yl)(3-(2-methyl-4-(pyrrolidin-1-ylmethyl)phenoxy)azetidin-1-yl)methanone]: the IC50 is 6.5 nM.

As to `CCC1(O)CN(Cc2ccc(OC3CN(C(=O)c4nnc(-c5ccccc5)o4)C3)c(C)c2)C1` [Example 74, (3-(4-((3-Ethyl-3-hydroxyazetidin-1-yl)methyl)-2-methylphenoxy)azetidin-1-yl)(5-phenyl-1,3,4-oxadiazol-2-yl)methanone], the IC50 was 18 nM.

`CN1CCN(Cc2ccc(OC3CN(C(=O)c4nnc(-c5ccccc5)o4)C3)cc2F)CC1` [Example 29, (3-(3-Fluoro-4-((4-methylpiperazin-1-yl)methyl)phenoxy)azetidin-1-yl)(5-phenyl-1,3,4-oxadiazol-2-yl)methanone]: the IC50 came out at 86 nM.

With `COc1ccc(-c2nnc(C(=O)N3CC(Oc4ccc(CN5CC(O)(C6CC6)C5)cc4)C3)o2)cc1` [Example 56, (3-(4-((3-Cyclopropyl-3-hydroxyazetidin-1-yl)methyl)phenoxy)azetidin-1-yl)(5-(4-methoxyphenyl)-1,3,4-oxadiazol-2-yl)methanone], the IC50 came to 13 nM.

As to `COc1ccc(-c2nnc(C(=O)N3CC(Oc4ccc(CN5CC(C)(O)C5)cc4Cl)C3)o2)cc1` [Example 79, (3-(2-Chloro-4-((3-hydroxy-3-methylazetidin-1-yl)methyl)phenoxy)azetidin-1-yl)(5-(4-methoxyphenyl)-1,3,4-oxadiazol-2-yl)methanone], the IC50 was 34 nM.

With `Cc1cc(OC2CN(C(=O)c3nnc(-c4ccc(OC(F)F)cc4)o3)C2)ccc1CN(C)C` [Example 43, (5-(4-(Difluoromethoxy)phenyl)-1,3,4-oxadiazol-2-yl)(3-(4-((dimethylamino)methyl)-3-methylphenoxy)azetidin-1-yl)methanone], the IC50 was 11 nM.

For the molecule `CCC1(O)CN(Cc2ccc(OC3CN(C(=O)c4nnc(-c5ccc(OC)cc5)o4)C3)cc2C)C1` [Example 73, (3-(4-((3-Ethyl-3-hydroxyazetidin-1-yl)methyl)-3-methylphenoxy)azetidin-1-yl)(5-(4-methoxyphenyl)-1,3,4-oxadiazol-2-yl)methanone], the IC50 is 14 nM.

In the case of `CN(C)Cc1ccc(OC2CN(C(=O)c3nnc(-c4ccccc4)o3)C2)c(F)c1F` [Example 39, (3-(4-((Dimethylamino)methyl)-2,3-difluorophenoxy)azetidin-1-yl)(5-phenyl-1,3,4-oxadiazol-2-yl)methanone], the IC50 was 49 nM.

`COc1ccc(-c2nnc(C(=O)N3CC(Oc4ccc(CN5CCN(C)CC5)c(Cl)c4)C3)o2)cc1` [Example 49, (3-(3-Chloro-4-((4-methylpiperazin-1-yl)methyl)phenoxy)azetidin-1-yl)(5-(4-methoxyphenyl)-1,3,4-oxadiazol-2-yl)methanone]: the IC50 was 37 nM.

Consider `COC1CN(Cc2ccc(OC3CN(C(=O)c4nnc(-c5ccccc5)o4)C3)c(Cl)c2)C1` [Example 57, (3-(2-Chloro-4-((3-methoxyazetidin-1-yl)methyl)phenoxy)azetidin-1-yl)(5-phenyl-1,3,4-oxadiazol-2-yl)methanone], for which the IC50 came to 18 nM.

For the molecule `COc1ccc(-c2nnc(C(=O)N3CC(Oc4ccc(CN(C)C)c(F)c4F)C3)o2)cc1` [Example 40, (3-(4-((Dimethylamino)methyl)-2,3-difluorophenoxy)azetidin-1-yl)(5-(4-methoxyphenyl)-1,3,4-oxadiazol-2-yl)methanone], the IC50 was found to be 27 nM.

As to `CN(C)Cc1ccc(OC2CN(C(=O)c3nnc(-c4ccccc4)o3)C2)cc1F` [Example 26, (3-(4-((Dimethylamino)methyl)-3-fluorophenoxy)azetidin-1-yl)(5-phenyl-1,3,4-oxadiazol-2-yl)methanone], the IC50 came out at 30 nM.

As to `COc1ccc(-c2nnc(C(=O)N3CC(Oc4ccc(CN5CCOCC5)cc4C)C3)o2)cc1` [Example 12, (5-(4-Methoxyphenyl)-1,3,4-oxadiazol-2-yl)(3-(2-methyl-4-(morpholinomethyl)-phenoxy)azetidin-1-yl)methanone], the IC50 was 30 nM.

As for `CC1(CO)CCN(Cc2ccc(OC3CN(C(=O)c4nnc(-c5ccccc5)o4)C3)cc2)C1` (centres unmarked) [Example 85, (3-(4-((3-(hydroxymethyl)-3-methylpyrrolidin-1-yl)methyl)phenoxy)azetidin-1-yl)(5-phenyl-1,3,4-oxadiazol-2-yl)methanone], the IC50 came to 19 nM.

As to `Cc1cc(CN2CCOCC2)ccc1OC1CN(C(=O)c2nnc(-c3ccccc3)o2)C1` [Example 14, (3-(2-Methyl-4-(morpholinomethyl)phenoxy)azetidin-1-yl)(5-phenyl-1,3,4-oxadiazol-2-yl)methanone], the IC50 came to 30 nM.

Consider `COc1ccc(-c2nnc(C(=O)N3CC(Oc4ccc(CN(C)C)c(F)c4)C3)o2)cc1` [Example 27, (3-(4-((Dimethylamino)methyl)-3-fluorophenoxy)azetidin-1-yl)(5-(4-methoxyphenyl)-1,3,4-oxadiazol-2-yl)methanone], for which the IC50 amounted to 21 nM.

`CN(Cc1ccc(SC2CN(C(=O)c3nnc(-c4ccccc4)o3)C2)cc1)CC1CCOC1` (centres unmarked) [Example 65, (3-(4-((Methyl((tetrahydrofuran-3-yl)methyl)amino)methyl)phenylthio)azetidin-1-yl)(5-phenyl-1,3,4-oxadiazol-2-yl)methanone]: the IC50 came out at 20 nM.

Regarding `CNCc1ccc(SC2CN(C(=O)c3nnc(-c4ccccc4)o3)C2)cc1` [Example 63, (3-(4-((Methylamino)methyl)phenylthio)azetidin-1-yl)(5-phenyl-1,3,4-oxadiazol-2-yl)methanone hydrochloride], the IC50 worked out at 23 nM.

Staying with this assay, now noted: separated enantiomers of Example 84 (chiral chromatography fractions); assay not given; read-out: IC50.
With `COc1ccc(-c2nnc(C(=O)N3CC(Oc4ccc(CN5CCC(C)(CO)C5)cc4)C3)o2)cc1` (single isomer, unassigned; (-)) [Example E1, (−)(3-(4-((3-(hydroxymethyl)-3-methylpyrrolidin-1-yl)methyl)phenoxy)azetidin-1-yl)(5-(4-methoxyphenyl)-1,3,4-oxadiazol-2-yl)methanone], the IC50 worked out at 28 nM.
